The values that follow come from PubChem BioAssay AID624167 (Sanford-Burnham Center for Chemical Genomics, 2012).

Structures are written as SMILES. Active and inactive are the calls of the source.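 Rule for the calls: active = mean IC50 for reducing PEG3 promoter reporter signal at or below a set limit, with IC50 above the limit in both counter screens; inactive = the rest, including counter screen hits.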 Bounds are passed on as bounds.

Common to all, as to experiment: inhibition of PEG-3 promoter-driven reporter – cell-based, HeLa, luciferase, CREF/GAPDH counter-screen panel, dose response (AID 624167)
Background: The purpose of a counterscreen is to sort out artefacts and off-target activity.

Assay [1] deals with PEG-3 (UniProt Q6IN02). Particulars: HeLa PEG-Prom luciferase reporter, overnight, CREF/GAPDH counter-screens, mean of runs. On the technique in general: In a reporter assay the amount or activity of a reporter protein is the signal.
Chain of PEG-3 (UniProt Q6IN02) (Q6IN02 whole entry, looked up): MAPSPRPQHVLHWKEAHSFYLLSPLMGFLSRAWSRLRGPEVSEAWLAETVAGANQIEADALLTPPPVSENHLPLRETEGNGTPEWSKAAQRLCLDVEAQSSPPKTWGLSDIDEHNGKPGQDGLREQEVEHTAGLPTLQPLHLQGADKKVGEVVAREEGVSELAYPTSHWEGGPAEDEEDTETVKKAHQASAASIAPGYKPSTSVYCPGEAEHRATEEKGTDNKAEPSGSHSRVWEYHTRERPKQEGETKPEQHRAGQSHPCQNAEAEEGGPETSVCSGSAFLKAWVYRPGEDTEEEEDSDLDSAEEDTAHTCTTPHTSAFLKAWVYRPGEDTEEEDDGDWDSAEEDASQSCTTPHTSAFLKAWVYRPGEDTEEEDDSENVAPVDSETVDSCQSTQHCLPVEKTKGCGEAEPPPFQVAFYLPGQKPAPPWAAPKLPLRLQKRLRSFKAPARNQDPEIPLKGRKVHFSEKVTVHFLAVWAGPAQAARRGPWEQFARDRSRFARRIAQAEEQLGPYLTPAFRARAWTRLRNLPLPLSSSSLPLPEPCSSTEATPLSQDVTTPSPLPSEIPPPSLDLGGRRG
Assay [2] has as its system PEG-3. Particulars: HeLa PEG-Prom luciferase reporter, overnight, CREF/GAPDH counter-screens.
A further assay relates to Rat fibroblasts (CREF). The settings on record: CREF/GAPDH counter-screens.
The mark [3] stands for this setting: run 1, dose range 1, individual replicate IC50 per panel.
The mark [4] stands for this setting: run 2, dose range 1, individual replicate IC50 per panel.

Consider `CC(C)Cc1ccc(C(C)C(N)=NCCc2ccccc2)cc1` (stereo not given), for which the IC50 is 9.7 µM at PEG-3 [1]; 12.2 µM with PEG-3 [2] (setting [3]); 7.19 µM in the assay on PEG-3 [2] (setting [4]); 13.3 µM with Rat fibroblasts (CREF) (mean of runs); 15 µM in the assay with Rat fibroblasts (CREF) (setting [3]); 11.6 µM in the assay on Rat fibroblasts (CREF) (setting [4]).
As for `O=C(N/N=C/c1cccs1)c1n[nH]c2c1CCCC2`, the IC50 on PEG-3 [1] was 5.19 µM; in the assay with PEG-3 [2] (setting [3]), 3.45 µM; in the assay with PEG-3 [2] (setting [4]), 6.93 µM; in the assay with Rat fibroblasts (CREF) (mean of runs), 6 µM; in the assay on Rat fibroblasts (CREF) (setting [3]), 5.1 µM; in the assay with Rat fibroblasts (CREF) (setting [4]), 6.91 µM.
In the case of `CCN1C=CC(=C2C(=O)c3ccccc3C2=O)C=C1`, the IC50 on PEG-3 [1] was 0.957 µM; in the assay on PEG-3 [2] (setting [3]), 0.834 µM; in the assay with PEG-3 [2] (setting [4]), 1.08 µM; in the assay with Rat fibroblasts (CREF) (mean of runs), 0.85 µM; with Rat fibroblasts (CREF) (setting [3]) it was 0.947 µM; with Rat fibroblasts (CREF) (setting [4]), 0.753 µM.
For `O=C(c1cc(-c2cccs2)nn1-c1ccccc1)N1CCN(S(=O)(=O)c2ccccc2)CC1`, the IC50 entry at PEG-3 [1] is “inactive”. In addition, the IC50 in the assay on PEG-3 [2] (setting [3]) is 8.84 µM; in the assay on PEG-3 [2] (setting [4]), over 100 µM.
On the same counts, the results for `CC(=O)Nc1ccc(S(=O)(=O)N(Cc2ccco2)Cc2cc3ccccc3[nH]c2=O)cc1` are “inactive”, 18.5 µM and 22.4 µM.
On the same counts, the results for `CN(C)S(=O)(=O)c1cccc(NC(=O)CSc2cccc3cccnc23)c1` are “inactive”, 23.7 µM and 19.6 µM.
On the same counts, the results for `CC1=CC(O)C(O)C2(C)C1CC1OC(=O)C(O)C3C(C)C(O)C4(O)OCC13C42` (stereo not given) are “inactive”, 44.9 µM and 84.3 µM.
`COc1cccc(NC(=O)CN(C)C(=O)c2cc(-c3ccc(F)cc3)nc3ccccc23)c1`: the IC50 entry at PEG-3 [1] was “inactive”. Also, the half-maximal inhibitory concentration (IC50) in the assay with PEG-3 [2] (setting [3]) amounted to 25.8 µM; with PEG-3 [2] (setting [4]), 44.6 µM.
On the same counts, the results for `O=C1/C(=C/c2ccccc2Cl)SC(=S)N1CCCC(=O)N(CCO)c1ccccc1` are 17.8 µM, 18.9 µM and 16.7 µM.
In the same order, the values of `COc1ccc(C(O)(CC(C)C)C(CN2CCOCC2)c2ccccc2)cc1` (stereo not given) are “inactive”, over 100 µM and 6.84 µM.
In the case of `CCCCCCC=C1CCC(CN2CCCC2)C1=O` (stereo not given), on PEG-3 [1], the IC50 entry was “inactive”. In addition, the 50% inhibitory concentration (IC50) came out at 35.6 µM in the assay with PEG-3 [2] (setting [3]) and 29.6 µM with PEG-3 [2] (setting [4]).
Consider `O=S(=O)(c1cccc(F)c1)N1CCN(c2nc(-c3cccnc3)nc3ccccc23)CC1`, for which the IC50 at PEG-3 [1] is 12.9 µM; in the assay with PEG-3 [2] (setting [3]) it was 10.1 µM; with PEG-3 [2] (setting [4]), 15.8 µM.
On the same counts, the results for `COc1ccccc1C1c2ccc3ccccc3c2Oc2ncn(CCCO)c(=N)c21` (stereo not given) are 15.8 µM, 17.4 µM and 14.2 µM.
On the same counts, the results for `CCN1CCc2c(sc(NC(=O)c3ccc(S(=O)(=O)N4CCCCCC4)cc3)c2C(=O)NC)C1` are “inactive”, 21.2 µM and 24.5 µM.
In the same order, the values of `Cc1cc(Br)ccc1NC(=O)CN1C(=O)C2C3CC(c4ccccc4)C(C3)C2C1=O` (stereo not given) are “inactive”, 23.9 µM and 41.9 µM.
Regarding `O=C(CN1CCCC1)Nc1ccc(-c2nc3cc(NC(=O)CN4CCCC4)ccc3o2)cc1`, the figures for the IC50 on PEG-3 [1], in the assay on PEG-3 [2] (setting [3]) and in the assay with PEG-3 [2] (setting [4]) were > 100 µM (inactive), over 100 µM and over 100 µM, respectively.
Turning to `CCCCNc1c(-c2cccc(Sc3ccc(OC)cc3)c2)nc2ccccn12`, the figures for the IC50 on PEG-3 [1], with PEG-3 [2] (setting [3]) and in the assay with PEG-3 [2] (setting [4]) were 13.6 µM, 16.7 µM and 10.6 µM, respectively.
In the same order, the values of `CCCCNC(=O)C(C)N(CCN(C)C)C(=O)CCCCCN1C(=O)NC(c2ccc(Cl)cc2)C(C(=O)OCc2ccccc2)=C1C` (stereo not given) are 13.2 µM, 16.2 µM and 10.1 µM.
In the same order, the values of `O=c1c2c3c(sc2nc(N2CCNCC2)n1CCc1ccccc1)CCCCC3` are “inactive”, 32.1 µM and 17.4 µM.
In the same order, the values of `CN(C)CC1CCC/C(=C\c2ccc(OC(=O)/C=C/c3ccccc3)cc2)C1=O` (stereo not given) are 14.6 µM, 21.8 µM and 7.3 µM.
Turning to `COc1ccc2c(c1)[nH]c1c(=O)n(/N=C/C3C(C)C=C(C)CC3C)c(=O)[nH]c12` (stereo not given), the values for the IC50 on PEG-3 [1], in the assay with PEG-3 [2] (setting [3]) and in the assay on PEG-3 [2] (setting [4]) were > 100 µM (inactive), over 100 µM and over 100 µM, respectively.
With `Cc1cc(C(=O)CN2C(=O)c3ccccc3S2(=O)=O)c(C)n1C(C)C`, the results for the IC50 at PEG-3 [1], in the assay on PEG-3 [2] (setting [3]) and in the assay on PEG-3 [2] (setting [4]) were 12.1 µM, 6.41 µM and 17.8 µM, respectively.
In the case of `Cc1cc(C)c2c(N)c3ccccc3nc2n1`, the IC50 result on PEG-3 [1] is “inactive”. Also, the IC50 in the assay with PEG-3 [2] (setting [3]) was 18.5 µM; in the assay with PEG-3 [2] (setting [4]) it was over 100 µM.
As for `CCC1(c2ccccc2)NC(=O)N(CC(=O)Nc2cc(S(=O)(=O)N3CCCCCC3)ccc2OC)C1=O` (stereo not given), the IC50 on PEG-3 [1] was 13.7 µM; with PEG-3 [2] (setting [3]), 13.9 µM; in the assay on PEG-3 [2] (setting [4]), 13.5 µM.
In the same order, the values of `CN(C)CCNC(=O)c1sc2nc(-c3ccccc3)cc(C(F)(F)F)c2c1N` are “inactive”, 20.5 µM and 19.8 µM.
On the same counts, the results for `O=C(CCN1C(=O)/C(=C/c2cccs2)SC1=S)N1CCCCC1` are “inactive”, 24.6 µM and 25.5 µM.
In the same order, the values of `CCCCC(=O)NC(c1ccccc1Cl)c1ccc2cccnc2c1O` (stereo not given) are “inactive”, 2.98 µM and over 100 µM.

The IC50 is the point on the concentration scale where inhibition reaches its midpoint.
